Where two headings read alike, the source gives them in different places.
What was measured:
[1] = system: WiDr human colon cancer cells; assay: Growth inhibitory activities on WiDr human colon cancer cells (MTT); format: cell-based; conditions: 72 h, three days incubation
Experimental: WiDr human colon cancer cells cultured in DULBECCO-modified eagle medium (DMEM; manufactured by SIGMA Co., Ltd.) containing 10% fetal calf serum, penicillin (100 unit/mL) and streptomycin (100 μg/mL) were dispensed in 96-well plates by 2×10^3 cells/well. After culturing overnight in a CO2 incubator, 20 μL of the above-mentioned incubation solution containing the test compound diluted with 3-fold succession was added, followed by incubation. After three days, 50 μL of 3.3 mg/mL MTT solution was added, followed by culturing for further one hour. Then, formazan formed by the reduction by the action of living cells was extracted with 100 μL of DMSO, the absorbance (A540/A660) was determined and was set as the index of the number of living cells.
The concentrations of the compounds of the formula (I) at which the growth of WiDr human colon cancer cells are inhibited 50% were determined.

[2] = Stability in an aqueous solution (HPLC residual ratio); conditions: for Peak area (mAU × sec) after 24 hours / The residual ratios (%): Britton-Robinson's buffer pH 7, 25° C., 24 hours; for Peak area (mAU × sec) initial: Britton-Robinson's buffer pH 7, before incubation
Experimental: The compounds of the formula (I) were dissolved in DMSO in concentrations of 10 to 20 mM, and these were diluted about 500 folds with Britton-Robinson's buffer solution of pH 7. Each of the solutions as sample solutions was incubated at 25° C. for 24 hours.
The sample solutions were analyzed by high performance liquid chromatography before and after incubation, and the residual ratios of the tested substances in the sample solutions after incubation were determined from the peak areas of the obtained chromatograms.

VEGF promoter = assay: VEGF transcription-suppressing activity (VEGF promoter-PLAP reporter, U251/1-8 cells, hypoxia); format: cell-based; conditions: Homo sapiens, read-out: VEGF transcription-suppressing activities (IC50: nM)
Description: In order to prepare reporter system reflecting transcription from VEGF promoter, VEGF promoter sequence was cloned, and inserted in secretory alkaline phosphatase (PLAP) vector to construct reporter vector.
In order to obtain the promoter region of human VEGF, VEGF genomic DNA was cloned from phage library. PCR primers having the sequences described in Sequence Numbers 1 and 2 were designed based on VEGF cDNA (GenBank accession number: X62568) and a fragment having about 340 bp was obtained by carrying out PCR. Human genomic phage library (Human genomic library, Clontech Co.) was screened using this as a probe to obtain VEGF genomic DNA. The DNA was digested by EcoRI, and the resultant fragments were inserted in the EcoRI site of pUC18. Finally, pUC18-VEGFA containing about 5.4 kb of VEGF 5′ flanking region was obtained. The pUC18-VEGFA was digested by KpnI/NheI, VEGF promoter region of about 2.3 kb obtained was inserted in the multi cloning site KpnI/NheI of secretory alkaline phosphatase (PLAP) vector (Goto et al, Mol. Pharmacol., 49, 860-873, 1996), and thus, VEGF-PLAP vector was constructed.
The above-mentioned VEGF-PLAP vector was transfected in the U251 cell cultured in the DULBECCO-modified eagle medium (DMEM; manufactured by SIGMA Co., Ltd.) containing 10% fetal calf serum, and the cells were cultured in the presence of 1 mg/mL G418 (Merck Co.) to establish G418 resistant stable clone (U251/1-8 cell).
It was confirmed that U251/1-8 cell secreted PLAP under hypoxic condition (2% O2 incubator) in the same manner as in the report (Cell. Mol. Biol. Res. 40, 35-39, 1994) and was a reporter system reflecting the transcription from VEGF promoter. The screening of the compound suppressing VEGF production which was induced by hypoxic stimulation was carried out below using the clone.
In order to remove the influence of alkaline phosphates in serum, U251/1-8 cells were rinsed twice with the adequate amount of PBS (Phosphate buffered saline), diluted in the DMEM medium containing 10% of serum in which alkaline phosphates was inactivated by the treatment of 65° C. for 20 min., and dispensed in 96-well plates by 4×10^4 cells/180 μL.
After culturing at 37° C. overnight in a CO2 incubator (5% CO2), 20 μL of the above-mentioned incubation solution containing the test compound diluted with 3-fold succession was added, and then they were incubated in a hypoxic (2% […]) incubator for 18 hours. With respect to the PLAP activity in the culture supernatants, 10 μL of the supernatants was added to 50 μL of 0.28 M Na2CO3—NaHCO3 buffer solution (pH 10.0, 8.0 mM MgSO4), and finally 50 μL of alkaline phosphatase substrate (LUMISTEIN, Genomescience Co.) was added. After reacting for one hour, the alkaline phosphatase activity of the PLAP was measured by detecting the chemical luminescence by a micro plate reader (Perkin-Elmer Co.). The PLAP activity under normoxia was set as 0%, the PLAP activity of cell which was treated under hypoxia was set as 100%, and the concentration suppressing the PLAP activity by 50% was set as the IC50 value of PLAP. The IC50 values of 11107D derivatives shown in Examples were measured, and the IC50 values of representative 11107D derivatives are shown in Table 1.

[3] = system: WiDr human colon cancer cells; assay: Solid tumor growth inhibitory activities, WiDr human colon tumor model in nude mice; format: in vivo; conditions: Mus musculus, iv, 360 h, read-out: Growth inhibitory activities in the WiDr human solid tumor model (T/C %)
Description: (§1) In order to study solid tumor growth inhibitory activities of the compounds of the formula (I) in vivo, WiDr human colon cancer cells were implanted subcutaneously into the flanks of nude mice. […]. The animals were grouped so that the average of the volumes of the respective groups became uniform, when it reached about 100 mm^3. Control group was made up of 10 mice and 11107D-administering groups were made up of 5 mice. The derivatives were administered for the administering groups for 5 consecutive days by intravenous injection so as to be any of 0.625 mg, 1.25 mg, 2.5 mg, 5 mg and 10 mg/kg/day, and a vehicle was administered to the control group. The tumor volumes on Day 15 were measured, and relative tumor volume ratios (T/C %) were determined setting the tumor volume of the control group as 100%. The body weights on Day 1, Day 5, Day 8, Day 12 and Day 15 (or 16) were measured, and relative body weight variations were determined setting the body weight on Day 1 as 100%. The relative body weight ratios on the day where the body weight reached the minimum were defined as the minimum relative weight ratios and are shown in Table 3.

[4] = Body weight loss (acute toxicity) in the WiDr tumor model; format: in vivo, nude mice; conditions: Dose 2.5 mg/kg, intravenous 5 consecutive days; body weight relative to Day 1
Description: as §1

Row | Compound | IC50 [1] [nM] | Peak area (mAU × sec) after 24 hours [2] [mAU × sec] | The residual ratios (%) [2] [%] | Peak area (mAU × sec) initial [2] [mAU × sec] | IC50 (VEGF promoter; U-251, 18 h) [nM] | response vs control in vivo at 2.5 mg/kg [3] [%] | the minimum relative weight ratios [4] | IC50 (VEGF promoter; U-251, U251/1-8 cells, hypoxic incubator 18 hours, PLAP activity) [nM]
1 | CCC(O)C(C)C1OC1CC(C)(O)/C=C/C=C(\C)C1OC(=O)CC(O)CCC(C)(OC)C(OC(=O)N2C[C@@H]3C[C@H]2CN3CC)/C=C/C1C (stereo in doubt) [Compound 122, (8E,12E,14E)-7-(((1S,4S)-5-Ethyl-2,5-diazabicyclo[2.2.1]heptan-2-yl)carbonyl)oxy-3,16,21-trihydroxy-6-methoxy-6,10,12,16,20-pentamethyl-18,19-epoxytricosa-8,12,14-trien-11-olide] | 1.1 | 4620 | 94.8 | 4872 | 4.4 |  |  | 
2 | CCC(O)C(C)C1OC1CC(C)(O)/C=C/C=C(\C)C1OC(=O)CC(O)CCC(C)(O)C(OC(=O)N2CCN(C)CC2)/C=C/C1C (centres unmarked) [Compound 12, (8E,12E,14E)-3,6,16,21-Tetrahydroxy-6,10,12,16,20-pentamethyl-7-((4-methylpiperazin-1-yl)carbonyl)oxy-18,19-epoxytricosa-8,12,14-trien-11-olide] |  | 5169 | 94.9 | 5450 | 10.2 | 21 | 0.85 | 
3 | CCC(O)C(C)C1OC1CC(C)(O)/C=C/C=C(\C)C1OC(=O)CC(O)CCC(C)(O)C(OC(=O)N(C)C2CCN(C)CC2)/C=C/C1C (centres unmarked) [Compound 15, (8E,12E,14E)-3,6,16,21-Tetrahydroxy-6,10,12,16,20-pentamethyl-7-(N-methyl-N-(1-methylpiperidin-4-yl)carbamoyloxy)-18,19-epoxytricosa-8,12,14-trien-11-olide] |  |  |  |  |  | 36 | 0.82 | 
4 | CCC(O)C(C)C1OC1CC(C)(O)/C=C/C=C(\C)C1OC(=O)CC(O)CCC(C)(O)C(OC(=O)N2CCCN(Cc3ccccc3)CC2)/C=C/C1C (centres unmarked) [Compound 17, (8E,12E,14E)-7-((4-Benzylhomopiperazin-1-yl)carbonyl)oxy-3,6,16,21-tetrahydroxy-6,10,12,16,20-pentamethyl-18,19-epoxytricosa-8,12,14-trien-11-olide] | 2.6 |  |  |  | 3.9 |  |  | 
5 | CCC(O)C(C)C1OC1CC(C)(O)/C=C/C=C(\C)C1OC(=O)CC(O)CCC(C)(O)C(OC(=O)N2CCN(Cc3ccccc3)CC2)/C=C/C1C (centres unmarked) [Compound 24, (8E,12E,14E)-7-((4-Benzylpiperazin-1-yl)carbonyl)oxy-3,6,16,21-tetrahydroxy-6,10,12,16,20-pentamethyl-18,19-epoxytricosa-8,12,14-trien-11-olide] | 5.3 |  |  |  | 5.5 |  |  | 
6 | CCCN1CCN(C(=O)OC2/C=C/C(C)C(/C(C)=C/C=C/C(C)(O)CC3OC3C(C)C(O)CC)OC(=O)CC(O)CCC2(C)O)CC1 (centres unmarked) [Compound 25, (8E,12E,14E)-3,6,16,21-Tetrahydroxy-6,10,12,16,20-pentamethyl-7-((4-propylpiperazin-1-yl)carbonyl)oxy-18,19-epoxytricosa-8,12,14-trien-11-olide] | 1.2 |  |  |  | 2.9 |  |  | 
7 | CCC(O)C(C)C1OC1CC(C)(O)/C=C/C=C(\C)C1OC(=O)CC(O)CCC(C)(O)C(OC(=O)N2CCN(CC3CC3)CC2)/C=C/C1C (centres unmarked) [Compound 27, (8E,12E,14E)-7-((4-(Cyclopropylmethyl)piperazin-1-yl)carbonyl)oxy-3,6,16,21-tetrahydroxy-6,10,12,16,20-pentamethyl-18,19-epoxytricosa-8,12,14-trien-11-olide] | 1.2 |  |  |  | 3.7 |  |  | 
8 | CCC(O)C(C)C1OC1CC(C)(O)/C=C/C=C(\C)C1OC(=O)CC(O)CCC(C)(OC)C(OC(=O)N2CCCN(C3CCCCC3)CC2)/C=C/C1C (centres unmarked) [Compound 95, (8E,12E,14E)-7-((4-Cyclohexylhomopiperazin-1-yl)carbonyl)oxy-3,16,21-trihydroxy-6-methoxy-6,10,12,16,20-pentamethyl-18,19-epoxytricosa-8,12,14-trien-11-olide] | 0.5 |  |  |  | 1.2 |  |  | 
9 | CCOC1(C)CCC(O)CC(=O)OC(/C(C)=C/C=C/C(C)(O)CC2OC2C(C)C(O)CC)C(C)/C=C/C1OC(=O)N1CCN(C)CC1 (centres unmarked) [Compound 127, (8E,12E,14E)-6-Ethoxy-3,16,21-trihydroxy-6,10,12,16,20-pentamethyl-7-((4-methylpiperazin-1-yl)carbonyl)oxy-18,19-epoxytricosa-8,12,14-trien-11-olide] | 0.7 |  |  |  |  |  |  | 2.4
10 | CCC(OC)C(C)C1OC1CC(C)(O)/C=C/C=C(\C)C1OC(=O)CC(O)CCC(C)(O)C(OC(=O)N2CCN(C(C)C)CC2)/C=C/C1C (centres unmarked) [Compound 130, (8E,12E,14E)-3,6,16-Trihydroxy-7-((4-isopropylpiperazin-1-yl)carbonyl)oxy-21-methoxy-6,10,12,16,20-pentamethyl-18,19-epoxytricosa-8,12,14-trien-11-olide] |  | 4583 | 95.1 | 4819 |  |  |  | 
11 | CCC(O)C(C)C1OC1CC(C)(O)/C=C/C=C(\C)C1OC(=O)CC(O)CCC(C)(OC(=O)N2CCCN(CC)CC2)C(OC(C)=O)/C=C/C1C (centres unmarked) [Compound 136, (8E,12E,14E)-7-Acetoxy-6-((4-ethylhomopiperazin-1-yl)carbonyl)oxy-3,16,21-trihydroxy-6,10,12,16,20-pentamethyl-18,19-epoxytricosa-8,12,14-trien-11-olide] | 0.8 | 3579 | 95.4 | 3750 | 1.2 |  |  | 
12 | CCC(O)C(C)C1OC1CC(C)(O)/C=C/C=C(\C)C1OC(=O)CC(O)CCC(C)(O)C(OC(=O)CCc2ccccc2)/C=C/C1C (centres unmarked) [Compound 142, (8E,12E,14E)-3,6,16,21-Tetrahydroxy-6,10,12,16,20-pentamethyl-7-(3-phenylpropanoyl)oxy-18,19-epoxytricosa-8,12,14-trien-11-olide] | 4.9 | 3705 | 94.6 | 3916 | 11.2 |  |  | 

— patent US7893068B2, “Physiologically active substances” (Mercian Corporation, priority 2002, dated 2011)
